From patent US9604980B2, “Substituted pyrimidinyl and pyridinyl-pyrrolopyridinones, process for their preparation and their use as kinase inhibitors” (NERVIANO MEDICAL SCIENCES S.r.l, priority 2012, dated 2017)
Converted amounts (≈) assume the structure as drawn.

How the values were obtained:
[1] = High-Throughput Solubility Assay; type: physicochemical; details: for solubility at 24 h: kinetic from dmso stock, pH 7, aqueous potassium phosphate buffer, nominal 200 μM, 24 h at room temperature
Procedure: High-Throughput Solubility Assay
A nominal 200 μM suspensions/solutions of a compound of formula (I) in aqueous potassium phosphate buffer at pH=7 and aqueous citric acid buffer at pH=3 were prepared on a “Multiscreen-HTS”, 0.2 μm filter plate (Millipore, Billerica, Mass.). These solutions were stirred for 10 min and stored for 24 h at room temperature to pre-saturate the membrane filter and to reach a “pseudo-thermodynamic solubility”. Then the plate was put on a 500 μL 96 multiwell plate containing 200 μL of acetonitrile in each well and centrifuged at 2000 rpm for 5 minutes. The so obtained solutions were then analyzed simultaneously by HPLC-UV with standard solutions for quantification.

[2] = system: A2780 ovarian carcinoma cells; experiment: In Vitro Cell Proliferation Assay (A2780); type: cell-based; details: Homo sapiens, 72 hours exposure, CellTiterGlo
Procedure: (§1) In Vitro Cell Proliferation Assay
(§2) To evaluate the antiproliferative activity of a compound of formula (I) the following human cell lines were used: A2780 ovarian and MCF-7 breast carcinoma; TT and MZ-CRC-1 medullary thyroid carcinoma, harboring a mutated RET-C634W and RET-M918T receptor respectively, LC-2/ad Non Small Cell Lung Carcinoma, expressing the CCDC6-RET fusion gene product. Exponentially growing cells were seeded and incubated at 37° C. in a humidified 5% C02 atmosphere using appropriate medium supplemented with 10% Fetal Bovine Serum. 24 hours following cell plating, scalar doses of the compounds dissolved in 0.1% DMSO were added to the medium and cells were exposed to drugs for either 72 hours (MCF-7 and A2780) or 144 hours (TT, MZ-CRC-1 and LC-2/ad), according to their different proliferation rate. At the end of treatment, cell proliferation was determined by an intracellular ATP monitoring system (CellTiterGlo—Promega), following manufacturer's instructions, and using an Envision instrument (PerkinElmer) as reader. Data obtained from compound versus vehicle treated cells were compared using Assay Explorer (Symyx Technologies Inc) software. IC50 values were calculated using sigmoidal interpolation curve fitting.

[3] = system: MCF-7 breast carcinoma cells; experiment: In Vitro Cell Proliferation Assay (MCF-7); type: cell-based; details: Homo sapiens, MCF7; 72 hours exposure, CellTiterGlo
Procedure: as §1, §2

[4] = system: TT medullary thyroid carcinoma cells, harboring a mutated RET-C634W receptor; experiment: In Vitro Cell Proliferation Assay (TT); type: cell-based; details: Homo sapiens; 144 hours exposure, CellTiterGlo
Procedure: as §1, §2

[5] = system: MZ-CRC-1 medullary thyroid carcinoma cells, harboring a mutated RET-M918T receptor; experiment: In Vitro Cell Proliferation Assay (MZ-CRC-1); type: cell-based; details: Homo sapiens, 144 hours exposure, CellTiterGlo
Procedure: as §1, §2

solubility at 24 h [1] [µM]	IC50 [2] [nM]	IC50 [3] [nM]	IC50 [4] [µM]	IC50 [5] [µM]	solubility (in words) ([1]; neutral, physiological pH (pH 7), compared with the reference compound)	Structure (SMILES)
5.8 (≈ 3.9 µg/mL)	1150	2810	0.007	–	–	CCN1CCN(Cc2cc(NC(=O)Nc3cccc(C#Cc4cnc(N)nc4-c4cc5c(n4C)CCNC5=O)c3)ccc2C(F)(F)F)CC1 [Cmpd 22, 1-{3-[2-Amino-4-(1-methyl-4-oxo-4,5,6,7-tetrahydro-1H-pyrrolo[3,2-c]pyridin-2-yl)-pyrimidin-5-ylethynyl]-phenyl}-3-[3-(4-ethyl-piperazin-1-ylmethyl)-4-trifluoromethyl-phenyl]-urea]
7.4 (≈ 4.97 µg/mL)	2230	9160	0.085	–	–	CCN1CCN(Cc2cc(NC(=O)Nc3cccc(C#Cc4cnc(N)nc4-c4cc5c(n4C)CCNC5=O)c3)cc(C(F)(F)F)c2)CC1 [Cmpd 29, 1-{3-[2-Amino-4-(1-methyl-4-oxo-4,5,6,7-tetrahydro-1H-pyrrolo[3,2-c]pyridin-2-yl)-pyrimidin-5-ylethynyl]-phenyl}-3-[3-(4-ethyl-piperazin-1-ylmethyl)-5-trifluoromethyl-phenyl]-urea]
1.7 (≈ 1.14 µg/mL)	1000	2190	0.008	–	–	CCN1CCN(Cc2ccc(NC(=O)Nc3ccc(C#Cc4cnc(N)nc4-c4cc5c(n4C)CCNC5=O)cc3)cc2C(F)(F)F)CC1 [Cmpd 30, 1-{4-[2-Amino-4-(1-methyl-4-oxo-4,5,6,7-tetrahydro-1H-pyrrolo[3,2-c]pyridin-2-yl)-pyrimidin-5-ylethynyl]-phenyl}-3-[4-(4-ethyl-piperazin-1-ylmethyl)-3-trifluoromethyl-phenyl]-urea]
9.4 (≈ 6.31 µg/mL)	704	2690	0.001	–	–	CCN1CCN(Cc2ccc(NC(=O)Cc3cncc(C#Cc4cnc(N)nc4-c4cc5c(n4C)CCNC5=O)c3)cc2C(F)(F)F)CC1 [Cmpd 122, 2-{5-[2-Amino-4-(1-methyl-4-oxo-4,5,6,7-tetrahydro-1H-pyrrolo[3,2-c]pyridin-2-yl)-pyrimidin-5-ylethynyl]-pyridin-3-yl}-N-[4-(4-ethyl-piperazin-1-ylmethyl)-3-trifluoromethyl-phenyl]-acetamide]
25.1 (≈ 16.8 µg/mL)	3900	> 10000	0.06	–	–	CCN1CCN(Cc2ccc(NC(=O)Cc3ccc(C#Cc4cnc(N)nc4-c4cc5c(n4C)CCNC5=O)cc3)cc2C(F)(F)F)CC1 [Cmpd 123, 2-{4-[2-Amino-4-(1-methyl-4-oxo-4,5,6,7-tetrahydro-1H-pyrrolo[3,2-c]pyridin-2-yl)-pyrimidin-5-ylethynyl]-phenyl}-N-[4-(4-ethyl-piperazin-1-ylmethyl)-3-trifluoromethyl-phenyl]-acetamide]
8.9 (≈ 6.09 µg/mL)	2020	5620	0.002	–	–	CCCN1CCN(Cc2ccc(NC(=O)Cc3cccc(C#Cc4cnc(N)nc4-c4cc5c(n4C)CCNC5=O)c3)cc2C(F)(F)F)CC1 [Cmpd 164, 2-{3-[2-Amino-4-(1-methyl-4-oxo-4,5,6,7-tetrahydro-1H-pyrrolo[3,2-c]pyridin-2-yl)-pyrimidin-5-ylethynyl]-phenyl}-N-[4-(4-propyl-piperazin-1-ylmethyl)-3-trifluoromethyl-phenyl]-acetamide]

Further lines, the compound ahead of its results:

Structure (SMILES)	solubility at 24 h [1] [µM]	IC50 [2] [nM]	IC50 [3] [nM]	IC50 [4] [µM]	IC50 [5] [µM]	solubility (in words) ([1]; neutral, physiological pH (pH 7), compared with the reference compound)
CCN1CCN(Cc2ccc(NC(=O)Nc3cccc(C#Cc4cnccc4-c4cc5c(n4C)CCNC5=O)c3)cc2C(F)(F)F)CC1 [Cmpd 38, 1-[4-(4-Ethyl-piperazin-1-ylmethyl)-3-trifluoromethyl-phenyl]-3-{3-[4-(1-methyl-4-oxo-4,5,6,7-tetrahydro-1H-pyrrolo[3,2-c]pyridin-2-yl)-pyridin-3-ylethynyl]-phenyl}-urea]	10.8 (≈ 7.08 µg/mL)	1950	5040	0.038	–	–
CCN1CCN(Cc2ccc(NC(=O)N3CCc4ccc(C#Cc5cnc(N)nc5-c5cc6c(n5C)CCNC6=O)cc43)cc2C(F)(F)F)CC1 [Cmpd 44, 6-[2-Amino-4-(1-methyl-4-oxo-4,5,6,7-tetrahydro-1H-pyrrolo[3,2-c]pyridin-2-yl)-pyrimidin-5-ylethynyl]-2,3-dihydro-indole-1-carboxylic acid [4-(4-ethyl-piperazin-1-ylmethyl)-3-trifluoromethyl-phenyl]-amide]	4.7 (≈ 3.28 µg/mL)	1720	3480	0.069	0.231	–
Cn1nc(C(C)(C)C)cc1NC(=O)Cc1cccc(C#Cc2cnc(N)nc2-c2cc3c(n2C)CCNC3=O)c1 [Cmpd 105, 2-{3-[2-Amino-4-(1-methyl-4-oxo-4,5,6,7-tetrahydro-1H-pyrrolo[3,2-c]pyridin-2-yl)-pyrimidin-5-ylethynyl]-phenyl}-N-(5-tert-butyl-2-methyl-2H-pyrazol-3-yl)-acetamide]	15.3 (≈ 8.21 µg/mL)	2740	> 10000	0.025	–	–
CCN1CCN(Cc2ccc(NC(=O)Cc3ccc(C#Cc4cnc(N)nc4-c4cc5c(n4C)CCNC5=O)s3)cc2C(F)(F)F)CC1 [Cmpd 129, 2-{5-[2-Amino-4-(1-methyl-4-oxo-4,5,6,7-tetrahydro-1H-pyrrolo[3,2-c]pyridin-2-yl)-pyrimidin-5-ylethynyl]-thiophen-2-yl}-N-[4-(4-ethyl-piperazin-1-ylmethyl)-3-trifluoromethyl-phenyl]-acetamide]	26.4 (≈ 17.9 µg/mL)	105	8180	0.002	–	–
CN1CCCN(Cc2ccc(NC(=O)Cc3cccc(C#Cc4cnc(N)nc4-c4cc5c(n4C)CCNC5=O)c3)cc2C(F)(F)F)CC1 [Cmpd 149, 2-{3-[2-Amino-4-(1-methyl-4-oxo-4,5,6,7-tetrahydro-1H-pyrrolo[3,2-c]pyridin-2-yl)-pyrimidin-5-ylethynyl]-phenyl}-N-[4-(4-methyl-[1,4]diazepan-1-ylmethyl)-3-trifluoromethyl-phenyl]-acetamide]	30.4 (≈ 20.4 µg/mL)	1910	3720	0.013	–	–
CN(C)[C@H]1CCN(Cc2ccc(NC(=O)Cc3cccc(C#Cc4cnc(N)nc4-c4cc5c(n4C)CCNC5=O)c3)cc2C(F)(F)F)C1 [Cmpd 150, 2-{3-[2-Amino-4-(1-methyl-4-oxo-4,5,6,7-tetrahydro-1H-pyrrolo[3,2-c]pyridin-2-yl)-pyrimidin-5-ylethynyl]-phenyl}-N-[4-((S)-3-dimethylamino-pyrrolidin-1-ylmethyl)-3-trifluoromethyl-phenyl]-acetamide]	40.2 (≈ 27 µg/mL)	1930	5640	0.006	–	–
CCCN1CCN(Cc2ccc(NC(=O)Cc3cccc(C#Cc4cnc(NC)nc4-c4cc5c(n4C)CCNC5=O)c3)cc2C(F)(F)F)CC1 [Cmpd 179, 2-{3-[2-Methylamino-4-(1-methyl-4-oxo-4,5,6,7-tetrahydro-1H-pyrrolo[3,2-c]pyridin-2-yl)-pyrimidin-5-ylethynyl]-phenyl}-N-[4-(4-propyl-piperazin-1-ylmethyl)-3-trifluoromethyl-phenyl]-acetamide]	1.2 (≈ 0.839 µg/mL)	3240	–	0.017	0.038	–
Cn1c(-c2nc(N)ncc2C#Cc2cccc(NC(=O)Nc3ccc(C(F)(F)F)cc3)c2)cc2c1CCNC2=O [Reference cmpd, 1-{3-[2-Amino-4-(1-methyl-4-oxo-4,5,6,7-tetrahydro-1H-pyrrolo[3,2-c]pyridin-2-yl)-pyrimidin-5-ylethynyl]-phenyl}-3-(4-trifluoromethyl-phenyl)-urea, reference compound]	< 1	2750	4540	0.041	0.317	lack of solubility
